In paper PMC9969396, “Development of Human Carbonic Anhydrase II Heterobifunctional Degraders” (Journal of Medicinal Chemistry, 2023):

Biological target: T1, hCAII (Homo sapiens, UniProt P00918+Q96SW2)
T1 construct: HEK293 cells, a line known to abundantly express hCAII; endogenous in cells; host or cells: HEK293
Assay: nine-point dose response hCAII degradation assay in HEK293 cells, western blot
Format: cell-based
Conditions: 24 h; for Dmax: HEK293, HEK293 cells, read-out: DMax (maximum percentage of degradation); for hook effect (attenuation of target degradation at high concentration): doses up to 15 μM
Description: Three biological replicates of HEK293 cells were dosed in parallel with 4 or 5 at concentrations ranging from 5 pM to 15 μM for 24 h prior to lysis. […] This phenomenon can be attributed to the binary complexes of degrader-POI and degrader-E3 ligase outcompeting the POI-degrader-E3 ligase ternary complex at high degrader concentrations. […] The half-maximal degradation (DC50 value reported as a 95% confidence interval) and maximum percentage of degradation (DMax) of each active degrader were determined using a least squares sigmoidal fitting of the degradation activity of dosing concentrations below the observable “hook effect” (Figure 2B).
Figure 3 Dose-dependent degradation of hCAII by 4 and 5. (A) Western blot images of HEK293 cells dosed for 24 h with degrader 4 (left) or 5 (right) at concentrations of 5 pM to 15 μM. (B) Dose response curves of hCAII abundance as a percent of DMSO vehicle for 4 (left) or 5 (right). Band intensities of blots from three biological replicates were quantified using ImageJ software (Experimental Section). Data were normalized to a vehicle-treated (DMSO) group and plotted as a sigmoidal curve. Nonlinear fitting of log([inhibitor]) vs response (three parameters) was generated for 4 with R^2 = 0.955 and 5 with R^2 = 0.855 in GraphPad Prism. Points marked with an asterisk indicate only two biological replicates. In all other cases, error bars represent the standard deviation of triplicate experiments. Full images of the western blots are provided in the Supporting Information (Figures S1 and S3).
Given the inactivity of 1–3 and increased potency of 4 over 5, a 12-atom linker appeared to be a preferred length for favorable ternary complex formation in the heterobifunctional degraders tested. To further examine the role of linker length and composition, we explored hydrocarbon linkers for their ability to improve degrader lipophilicity and membrane permeability without impacting the favorable ternary complex formation. […] Western blot analysis and quantification of three biological replicates identified the degradation of hCAII at concentrations of 11 as low as 50 pM and achieved near-complete hCAII degradation at concentrations of 5 nM (Figures 5A and S3).
After reaching 90% confluency, HEK293 cells were trypsinized, counted, and plated with 2 mL media at 2 × 10^6 cells per well on a tissue-culture-treated, 6-well plate. At the appropriate number of hours before reaching ∼90% confluency, cells were treated with DMSO solutions of the appropriate compounds (final concentration 0.5% DMSO per well). Upon reaching 90% confluency, typically 72 h, culture media were removed and the cells were washed with cold Dulbecco’s phosphate-buffered saline (DPBS). Lysis buffer, composed of cell lysis buffer (Cell Signaling Technology, 9803), protease inhibitor cocktail (Cell Signaling Technology, 5872), and 1 mM phenylmethylsulfonylfluoride, was added to each well, and the plates were rocked at 4 °C for 20 min. Cells were then scraped from the bottom of the plates, and the supernatant was collected after spinning down at 14,000g at 4 °C for 10 min and frozen at −80 °C. Lysates were thawed on ice, and the total protein concentration was measured using a Pierce bicinchoninic acid protein assay (Thermo Fisher Scientific, 23225). […] Following heating at 98 °C for 5 min and cooling to room temperature, the prepared samples were electrophoretically separated on a 4–20% TGX gel (Bio-Rad, 4568095) and transferred to a PVDF membrane (Amersham Hybond P 0.45 μm, 106000019) in a tris-glycine transfer buffer (Thermo Fisher Scientific, LC3675) with a 20% final MeOH concentration. The membrane was rocked at 4 °C with fluorescent blocking buffer (Thermo Fisher Scientific, 37565) for 1 h and then incubated with primary antibodies (hCAII Rabbit mAb, 1:1000 and β-actin Rabbit pAb, 1:2000 in fluorescent blocking buffer) at 4 °C overnight. […]

SMILES | Dmax | concentration of maximum degradation (HEK293 cells) | DC50 (HEK293 cells, 5 pM to 15 μM, 95% confidence interval, read-out: DC50 (half-maximal degradation)) | hook effect (attenuation of target degradation at high concentration) (HEK293 cells) | DMax (maximum percentage of degradation) (HEK293 cells)
NS(=O)(=O)c1ccc(C(=O)NCCCOCCCCOCCCNc2cccc3c2C(=O)N(C2CCC(=O)NC2=O)C3=O)cc1 (centres unmarked) [Compound 4, N-(3-(4-(3-((2-(2,6-Dioxopiperidin-3-yl)-1,3-dioxoisoindolin-4-yl)amino)propoxy)butoxy)propyl)-4-sulfamoylbenzamide] | 96% | 500 nM | 5 ± 3 nM | hook effect | –
NS(=O)(=O)c1ccc(C(=O)NCCCOCCOCCOCCCNc2cccc3c2C(=O)N(C2CCC(=O)NC2=O)C3=O)cc1 (centres unmarked) [Compound 5, N-(3-(2-(2-(3-((2-(2,6-Dioxopiperidin-3-yl)-1,3-dioxoisoindolin-4-yl)amino)propoxy)ethoxy)ethoxy)propyl)-4-sulfamoylbenzamide] | 86% | 5000 nM | – | hook effect | 96%
